Measurements: patent publication US7834013B2, “Aminophenylcyclopropyl carboxylic acids and derivatives as agonists to GPR40” (GlaxoSmithKline LLC, priority 2003, dated 2010)
Counter-ions that a name gives are not always drawn.

Biological target: T1, GPR40 (Homo sapiens, UniProt O14842)
T1 construct: expressed in transfected cells
Test: GPR40 SAR Primary Assay (Elk-1/Gal4-luc+ reporter, luciferase activity)
Type: cell-based
Conditions: stable GPR40 Elk-1/Gal4-luc+ CHO cell line, 5 hours incubation
Procedure: An existing stable GPR40 Elk-1/Gal4-luc^+ CHO cell line generated by electroporation and functional cloning was used. Cells were maintained in a humidified incubator at 37° C./5% CO2 in complete media containing DMEM/F12 (Gibco, #11039-021), 5% FBS (Gibco, #16140-071) and 1% Glutamine (Gibco, #25030-081). Cell maintenance passages were made at 1:40 dilution every 3-4 days. Forty eight hours prior to assay, 15e6 cells were added to 200 ml of complete media then seeded into a 1200 cm^2-cell factory and returned to a humidified incubator at 37° C./5% CO2. 20 hours prior to assay, the growth media was removed and replaced with 200 ml of serum-free DMEM/F12 to quiesce background activity. At the time of assay, cells were harvested using non-enzymatic cell dissociation solution (Sigma, #C-5914), washed and counted. The 20 hour starve media was collected and used as condition media for cell assay plating. Cells were plated at a concentration of 10,000 cells/well in a total well volume of […] in black 96-well clear bottom polystyrene plates (CoStar, #3904). Test compounds were prepared as serial dilutions in 100% DMSO, then 1 ul was delivered to each well resulting in a final concentration of 1% DMSO. The plates were then returned to a humidified incubator at 37° C./5% CO2 for 5 hours. Following the incubation, the medium was replaced with 50 ul of a 1:1 mixture of SteadyGlo™ (Promega, #E2550) and dPBS containing 1 mM CaCl2 and 1 mM MgCl2. Plates were then sealed and subjected to dark adaptation at room temperature for 10 minutes. Luciferase activity was measured on a Packard TopCount™ microplate scintillation counter using 2 seconds per well count time.
Data analysis was performed using standard methods.
The Normalization Equation used was 100*(Unknown compound response−Background response)/(Agonist Max response−Background response).
The Curve Fit Function used was y=((Vmax*x^n)/(K^n+x^n))+Y2.
A percent max response and pEC50 were recorded for each compound. Although specific pEC50 values are given, these values should be considered exemplary. Those skilled in the art will appreciate the variability in performing and recording the biological activity assays that are herein described. The compounds of the present invention provide a pEC50 of at least 5.0.

T1 sequence (O14842 whole entry): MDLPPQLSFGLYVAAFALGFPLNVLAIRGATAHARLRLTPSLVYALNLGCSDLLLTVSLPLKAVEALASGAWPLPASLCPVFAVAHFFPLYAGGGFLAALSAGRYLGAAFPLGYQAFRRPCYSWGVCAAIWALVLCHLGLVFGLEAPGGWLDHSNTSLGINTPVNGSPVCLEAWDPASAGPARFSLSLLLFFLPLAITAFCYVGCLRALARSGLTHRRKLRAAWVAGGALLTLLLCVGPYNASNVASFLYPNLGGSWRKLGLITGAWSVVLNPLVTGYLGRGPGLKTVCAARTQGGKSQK

| SMILES | EC50 [nM] |
| --- | --- |
| O=C(O)[C@H]1C[C@@H]1c1ccc(NCc2cccc(Oc3cccc(C(F)(F)F)c3)c2)cc1 [Example 33, (+)-(trans)-2-(4-{[(3-{[3-(trifluoromethyl)phenyl]oxy}phenyl)methyl]amino}phenyl)cyclopropanecarboxy lic Acid] | 25.1 |
| Cc1nc(-c2ccc(C(F)(F)F)cc2)sc1CNc1ccc(C2CC2C(=O)N[C@@H](C)c2ccccc2)cc1 (stereo partly drawn) [Example 40, Enantiomerically Enriched (trans)-2-{4-[({4-methyl-2-[4-(trifluoromethyl)phenyl]-1,3-thiazol-5-yl}methyl)amino]phenyl}-N-[(1S)-1-phenylethyl]cyclopropanecarboxamide] | 50.1 |
| O=C(NCC1CC1)C1CC1c1ccc(NCc2cccc(Oc3ccccc3)c2)cc1 (stereo not drawn) [Example 54, Enantiomerically Enriched N-(cyclopropylmethyl)-2-{4-[(3-phenoxybenzyl)amino]phenyl}cyclopropanecarboxamide] | 20 |

These reach a lower EC50. Values come first.

| EC50 [nM] | SMILES |
| --- | --- |
| 10 | Cc1nc(-c2ccc(C(F)(F)F)cc2)sc1CNc1ccc(C2CC2C(=O)NC(C)C)cc1 (stereo not drawn) [Example 53, Enantiomerically Enriched N-isopropyl-2-{4-[({4-methyl-2-[4-(trifluoromethyl)phenyl]-1,3-thiazol-5-yl}methyl)amino]phenyl}cyclopropanecarboxamide] |
| 7.94 | Cc1ccc(Oc2cccc(CNc3ccc([C@H]4C[C@@H]4C(=O)O)cc3)c2)cc1 [Example 34, (+)-(trans)-2-{4-[({3-[(4-methylphenyl)oxy]phenyl}methyl)amino]phenyl}cyclopropanecarboxylic Acid Trifluoroacetate] |
